# Test results: patent US12544431B2, “Peptides for the treatment of cancer and/or metastasis” (BCN PEPTIDES, S.A., priority 2019, dated 2026)
# Like-named read-outs stand apart in the source and are kept apart here. Marks after values point to notes of the source that are not given here. *1 amine or outer side, *2 acyl side, *3 side chain or, on linkers, in order; H or OH if unused. Where a SMILES comes first, the peptide text is derived from it. Bridges are numbered along the chain shown (N, C = ends). Roman numbers before positions name the chains, in order. [ ]: non-standard residue; d: D form. The star is where a group is joined. Phe(2,4,6-Me3) = Cc1cc(C)c(C[C@H](N)C(=O)O)c(C)c1; X1 = Cc1cc(C)c(CC(N[*:1])C(=O)[*:2])c(C)c1; pGlu = O=C1CC[C@@H](C(=O)O)N1; Octanoyl = CCCCCCCC(=O)*
# How the values were obtained:
# [1] = test system: RH30 rhabdomyosarcoma cells; assay: Matrigel-coated transwell invasion assay, RH30 cells; type: cell-based; conditions: % invasive cells vs non-treated control
# Method: (§1) 10^5 RH30 or RD cells were plated in the upper chamber of a Matrigel-coated transwell (Corning) in 0.1 mL medium without FBS. Cells were previously incubated with different concentrations (0 nM, 100 nM, 200 nM, 500 nM and 1000 nM) of the peptides and peptide dimer for 48 hours, being also present in the medium during the cell invasion assay. In the lower chamber, 0.6 mL of medium with FBS was added. Cells were incubated at 37° ° C. for 24 hours.
# (§2) After that, cells were fixed with 4% paraformaldehyde (Sigma) for 10 minutes, followed by washing with PBS. After removal of the Matrigel and remaining cells from the upper face of the membrane with a cotton swab, the cells present on the lower face were stained with a Hoechst dilution (Sigma) and were counted (5 fields for each well) with an inverted fluorescence microscope Nikon with a 10× objective. All experiments were made in triplicate. In Table 6 the % Invasiveness represents the mean percentage of invasive cells with respect to their controls.
# [2] = test system: RD rhabdomyosarcoma cells; assay: Matrigel-coated transwell invasion assay, RD cells; type: cell-based; conditions: % invasive cells vs non-treated control
# Method: as §1, §2
# [3] = In vitro stability, half-life in human plasma; type: in vitro ADME; conditions: 90% human plasma, 37° C., RP-HPLC, read-out: t½ (hours) in human plasma (converted)
# Method: The peptides and peptide dimer synthesized and prepared in accordance with Example 1 were dissolved in water at a concentration of 6 mg/mL and warmed up to 37° C.
# Human plasma was obtained as a lyophilized solid (K3 EDTA Plasma, BBI Solutions, code S112-1), reconstituted with sterile 0.9% sodium chloride solution and stored at −20° C. Human plasma was thawed and incubated at 37° C. before use.
# The peptides and peptide dimer were incubated in 90% human plasma at 37° C. for different times and then precipitated with two volume equivalents of methanol. The samples were cooled in an acetone-carbon dioxide bath for a few seconds and centrifuged for 12 minutes at 4° C. at approximately 10,000 rpm. The supernatant was filtered with a 0.45 μm PVDF filter and analyzed in triplicate by RP-HPLC using an isocratic method (Eluent A=0.1% TFA in water; Eluent B=0.07% TFA in ACN, Column=Kromasil C8, 100 Å, 5 μm, 250×4.6 mm, Flow=1 mL/min, Wavelength: 220 nm, Injection volume=20 μL, Temperature=60° C.). The disappearance of the compound was determined in relation to the area of the initial time to calculate its half-life.
# [4] = 500 nM peptide, listed as Octanoyl-SEQ ID NO: 5—NH2
Molecule,% Invasiveness RH30 ([1]; 100 nM peptide),% Invasiveness RH30 ([1]; 200 nM peptide),% Invasiveness RH30 ([1]; 500 nM peptide),% Invasiveness RH30 ([1]; 1000 nM peptide),% Invasiveness RD ([2]; 100 nM peptide) [%],% Invasiveness RD ([2]; 200 nM peptide) [%],% Invasiveness RD ([2]; 500 nM peptide),% Invasiveness RD ([2]; 1000 nM peptide),"% Invasiveness RD ([2]; 1000 nM peptide, listed as Octanoyl-SEQ ID NO: 8—NH2)",half-life at 0.6 mg/mL [3] [h],"% Invasiveness RH30 ([1]; 100 nM peptide, listed as Ac-SEQ ID NO: 5—NH2)",half-life at 0.6 mg/mL ([3]; human plasma (K3 EDTA)) [h],"% Invasiveness RH30 ([1]; 100 nM peptide, listed as (SEQ ID NO: 6—NH2)2)","% Invasiveness RD ([2]; 1000 nM peptide, listed as (SEQ ID NO: 6—NH2)2)","% Invasiveness RH30 [1, 4]","% Invasiveness RD [2, 4]"
"CCCCCCCC(=O)N[C@@H](CCCCN)C(=O)N[C@@H](CCCNC(=N)N)C(=O)N[C@@H](CC(=O)O)C(=O)N[C@@H](CO)C(=O)N[C@@H](CO)C(=O)N[C@@H](CC(N)=O)C(=O)N[C@@H](CO)C(=O)N[C@@H](CCSC)C(=O)N[C@@H](CC(=O)O)C(=O)N[C@@H](CC(C)C)C(=O)N1CCC[C@H]1C(=O)N[C@@H](CCC(=O)O)C(=O)NC(Cc1c(C)cc(C)cc1C)C(=O)N[C@@H](CCCCN)C(N)=O (stereo partly drawn) [Octanoyl-SEQ ID NO: 8-NH2, Octanoyl-Lys-Arg-Asp-Ser-Ser-Asn-Ser-Met-Asp-Leu-Pro-Glu-Msa-Lys-NH2] (Octanoyl-KRDSSNSMDLPE[X1]K-NH2)",88.38%,99.30%,71.92%,74.06%,75.55,113.22,63.27%,15.89* %,significant decrease,3.6,–,–,–,–,–,–
"CC(=O)N[C@@H](CCCCN)C(=O)N[C@@H](CCCNC(=N)N)C(=O)N[C@@H](CC(=O)O)C(=O)N[C@@H](CO)C(=O)N[C@@H](CO)C(=O)N[C@@H](CC(N)=O)C(=O)N[C@@H](CO)C(=O)N[C@@H](CS)C(=O)N[C@@H](CC(=O)O)C(=O)N[C@@H](CC(C)C)C(=O)N1CCC[C@H]1C(=O)N[C@@H](CCC(=O)O)C(=O)NC(Cc1c(C)cc(C)cc1C)C(=O)N[C@@H](CCCCN)C(N)=O (stereo partly drawn) [Ac-SEQ ID NO: 5-NH2, Ac-Lys-Arg-Asp-Ser-Ser-Asn-Ser-Cys-Asp-Leu-Pro-Glu-Msa-Lys-NH2] (Ac-KRDSSNSCDLPE[X1]K-NH2)",24.83* %,–,18.49* %,–,100.80,–,35.59%,–,–,0.23,significant reduction,–,–,–,–,–
"Ac-RDSSNSCDLPEF-NH2 [Ac-SEQ ID NO: 10-NH2, Ac-Arg-Asp-Ser-Ser-Asn-Ser-Cys-Asp-Leu-Pro-Glu-Phe-NH2, reference compound]",83.91%,–,113.68%,–,106.77,–,59.90%,–,–,–,–,0.32,–,–,–,–
"Cc1cc(C)c(C[C@H](NC(=O)[C@H](CCC(=O)O)NC(=O)[C@@H]2CCCN2C(=O)[C@H](CC(C)C)NC(=O)[C@H](CC(=O)O)NC(=O)[C@H](CSSC[C@H](NC(=O)[C@H](CO)NC(=O)[C@H](CC(N)=O)NC(=O)[C@H](CO)NC(=O)[C@H](CO)NC(=O)[C@H](CC(=O)O)NC(=O)[C@H](CCCNC(=N)N)NC(=O)[C@H](CCCCN)NC(=O)[C@@H]2CCC(=O)N2)C(=O)N[C@@H](CC(=O)O)C(=O)N[C@@H](CC(C)C)C(=O)N2CCC[C@H]2C(=O)N[C@@H](CCC(=O)O)C(=O)N[C@@H](Cc2c(C)cc(C)cc2C)C(=O)N[C@@H](CCCCN)C(N)=O)NC(=O)[C@H](CO)NC(=O)[C@H](CC(N)=O)NC(=O)[C@H](CO)NC(=O)[C@H](CO)NC(=O)[C@H](CC(=O)O)NC(=O)[C@H](CCCNC(=N)N)NC(=O)[C@H](CCCCN)NC(=O)[C@@H]2CCC(=O)N2)C(=O)N[C@@H](CCCCN)C(N)=O)c(C)c1 [(SEQ ID NO: 6-NH2)2 (disulfide bridge), (Pyr-Lys-Arg-Asp-Ser-Ser-Asn-Ser-Cys-Asp-Leu-Pro-Glu-Msa-Lys-NH2)2 (disulfide bridge)] (I: [pGlu]KRDSSNSCDLPE[Phe(2,4,6-Me3)]K-NH2 / II: [pGlu]KRDSSNSCDLPE[Phe(2,4,6-Me3)]K-NH2; disulfide I:9-II:9)",82.46* %,70.84* %,78.26* %,57.59* %,–,–,64.71%,25.36* %,–,33.1,–,–,significant reduction,significant decrease,–,–
"CCCCCCCC(=O)N[C@@H](CCCCN)C(=O)N[C@@H](CCCNC(=N)N)C(=O)N[C@@H](CC(=O)O)C(=O)N[C@@H](CO)C(=O)N[C@@H](CO)C(=O)N[C@@H](CC(N)=O)C(=O)N[C@@H](CO)C(=O)N[C@@H](CS)C(=O)N[C@@H](CC(=O)O)C(=O)N[C@@H](CC(C)C)C(=O)N1CCC[C@H]1C(=O)N[C@@H](CCC(=O)O)C(=O)N[C@@H](Cc1c(C)cc(C)cc1C)C(=O)N[C@@H](CCCCN)C(N)=O [Octanoyl-SEQ ID NO: 5-NH2, Octanoyl-Lys-Arg-Asp-Ser-Ser-Asn-Ser-Cys-Asp-Leu-Pro-Glu-Msa-Lys-NH2] (Octanoyl-KRDSSNSCDLPE[Phe(2,4,6-Me3)]K-NH2)",120.81%,–,41.12* %,–,56.90,–,14.16* %,–,–,0.15,–,–,–,–,significant reduction,significant decrease
